According to patent US9133104B2 (Chroma Therapeutics Ltd., priority 2005, dated 2015):

Tests used:
[1] = molecular target: T1, histone deacetylase activity (HeLa nuclear extract); experiment: HDAC fluorescent activity assay (Biomol Fluor de Lys), HeLa nuclear extract; assay type: biochemical; conditions: Fluor de Lys substrate, IC50 range
T1 construct: Histone deacetylase activity from crude nuclear extract derived from HeLa cells was used for screening
Method in brief: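 Crude HeLa nuclear extract (20 mM Hepes, 100 mM KCl, 0.2 mM EDTA, 0.5 mM DTT, 0.2 mM PMSF, 20% glycerol) incubated with acetyl-lysine Fluor de Lys substrate ± inhibitor; developer generates fluorophore. Background-subtracted % of vehicle control; IC50 from eight-point variable-slope sigmoidal fit.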

[2] = tested on: Hela cancer cell line; experiment: Cell inhibition assay (SRB cell viability), Hela; assay type: cell-based; conditions: Homo sapiens, HeLa, 72 h, Hela cells, IC50 range
Method in brief: (§1)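 Log-phase Hela, U937 and HUT cells were seeded at 1000 cells/well, grown 24 h, then exposed to compound (20 uM final) for 72 h. Viability was read by sulphorhodamine B staining and expressed as % inhibition relative to DMSO control. IC50 values came from sigmoidal variable-slope fits of eight concentrations.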

[3] = tested on: U937 cancer cell line; experiment: Cell inhibition assay (SRB cell viability), U937; assay type: cell-based; conditions: Homo sapiens, U-937, U937 cells, 72 h, IC50 range
Experimental: The corresponding cancer cell lines (Hela, U937 and HUT) growing in log phase were harvested and seeded at 1000 cells/well (200 ul final volume) into 96-well tissue culture plates. Following 24 h of cell growth cells were treated with compounds (final concentration of 20 uM). Plates were then re-incubated for a further 72 h before a sulphorhodamine B (SRB) cell viability assay was conducted according to Skehan 1990 J Natl Canc Inst 82, 1107-1112.
Data were expressed as a percentage inhibition of the control, measured in the absence of inhibitor, as follows:— % inhibition=100−((S^i/S^o)×100) where S^i is the signal in the presence of inhibitor and S^o is the signal in the presence of DMSO. IC50 values were determined by non-linear regression analysis, after fitting the results of eight data points to the equation for sigmoidal dose response with variable slope (% activity against log concentration of compound), using Graphpad Prism software. […] NT=Not tested

[4] = tested on: HUT cancer cell line; experiment: Cell inhibition assay (SRB cell viability), HUT; assay type: cell-based; conditions: HUT cells, 72 h, IC50 range
Method in brief: as §1

Row | IC50 [1] [nM] | IC50 [2] [nM] | IC50 [3] [nM] | IC50 [4] [nM] | Compound
1 | > 1000 | > 3300 | 330 to 3300 | 330 to 3300 | CCOC(=O)[C@@H](NC(=O)[C@@H]1Cc2ccccc2CN1C(=O)CCCCCCC(=O)NO)c1ccccc1 [Compound 46, (S)-{[(S)-2-(7-Hydroxycarbamoyl-heptanoyl)-1,2,3,4-tetrahydro-isoquinoline-3-carbonyl]-amino}-phenyl-acetic acid ethyl ester]
2 | 101 to 1000 | > 3300 | 330 to 3300 | 330 to 3300 | CC(C)C[C@H](NC(=O)[C@@H]1Cc2ccccc2CN1C(=O)CCCCCCC(=O)NO)C(=O)OC1CCCC1 [Compound 51, (S)-2-{[(S)-2-(7-Hydroxycarbamoyl-heptanoyl)-1,2,3,4-tetrahydro-isoquinoline-3-carbonyl]-amino}-4-methyl-pentanoic acid cyclopentyl ester]
3 | > 1000 | > 3300 | > 3300 | > 3300 | O=C(CCCCCCC(=O)N1CCCC1C(=O)N[C@H](C(=O)OC1CCCC1)c1ccccc1)NO (stereo partly drawn) [Compound 53, (S)-{[1-(7-Hydroxycarbamoyl-heptanoyl)-pyrrolidine-2-carbonyl]-amino}-phenyl-acetic acid cyclopentyl ester]
4 | > 1000 | > 3300 | > 3300 | > 3300 | CCOC(=O)[C@H](Cc1ccccc1)NC(=O)C1CCCN1C(=O)CCCCCCC(=O)NO (stereo partly drawn) [Compound 55, (S)-2-{[1-(7-Hydroxycarbamoyl-heptanoyl)-pyrrolidine-2-carbonyl]-amino}-3-phenyl-propionic acid ethyl ester]
5 | > 1000 | > 3300 | > 3300 | > 3300 | O=C(CCCCCCC(=O)N1CCCC1C(=O)N[C@@H](Cc1ccccc1)C(=O)OC1CCCC1)NO (stereo partly drawn) [Compound 56, (S)-2-{[1-(7-Hydroxycarbamoyl-heptanoyl)-pyrrolidine-2-carbonyl]-amino}-3-phenyl-propionic acid cyclopentyl ester]
6 | 101 to 1000 | 330 to 3300 | 330 to 3300 | 330 to 3300 | O=C(CCCCCCC(=O)Nc1cccc(C(=O)N[C@H](C(=O)OC2CCCC2)c2ccccc2)c1)NO [Compound 60, (S)-[3-(7-Hydroxycarbamoyl-heptanoylamino)-benzoylamino]-phenyl-acetic acid cyclopentyl ester]
7 | 101 to 1000 | > 3300 | > 3300 | 330 to 3300 | CC(C)C[C@H](NC(=O)c1cccc(NC(=O)CCCCCCC(=O)NO)c1)C(=O)OC1CCCC1 [Compound 62, (S)-2-[3-(7-Hydroxycarbamoyl-heptanoylamino)-benzoylamino]-4-methyl-pentanoic acid cyclopentyl ester]
8 | 101 to 1000 | > 3300 | 330 to 3300 | 330 to 3300 | CC(C)(C)OC(=O)[C@H](Cc1ccccc1)NCc1cncc(NC(=O)CCCCCCC(=O)NO)c1 [Compound 68, (S)-2-{[5-(7-Hydroxycarbamoyl-heptanoylamino)-pyridin-3-ylmethyl]-amino}-3-phenyl-propionic acid tert-butyl ester]
9 | < 100 | 330 to 3300 | < 330 | < 330 | O=C(CCCCCCC(=O)Nc1cccc(OCCCN[C@@H](Cc2ccccc2)C(=O)OC2CCCC2)c1)NO [Compound 75, (S)-2-{3-[3-(7-Hydroxycarbamoyl-heptanoylamino)-phenoxy]-propylamino}-3-phenyl-propionic acid cyclopentyl ester]
10 | < 100 | > 3300 | > 3300 | 330 to 3300 | O=C(CCCCCCC(=O)Nc1cccc(CNC(=O)N[C@@H](Cc2ccccc2)C(=O)OC2CCCC2)c1)NO [Compound 81, (S)-2-{3-[3-(7-Hydroxycarbamoyl-heptanoylamino)-benzyl]-ureido}-3-phenyl-propionic acid cyclopentyl ester]
11 | 101 to 1000 | > 3300 | < 330 | 330 to 3300 | CC(C)C[C@H](NCc1ccc(NC(=O)CCCCCCC(=O)NO)cc1)C(=O)OC1CCCC1 [Compound 85, (S)-2-[4-(7-Hydroxycarbamoyl-heptanoylamino)-benzylamino]-4-methyl-pentanoic acid cyclopentyl ester]
12 | 101 to 1000 | > 3300 | < 330 | 330 to 3300 | O=C(CCCCCCC(=O)Nc1ccc(CN[C@H](C(=O)OC2CCCC2)C2CCCCC2)cc1)NO [Compound 86, (S)-Cyclohexyl-[4-(7-hydroxycarbamoyl-heptanoylamino)-benzylamino]-acetic acid cyclopentyl ester]

Second part, the compound before the results:

Row | Compound | IC50 [1] [nM] | IC50 [2] [nM] | IC50 [3] [nM] | IC50 [4] [nM]
13 | CCOC(=O)[C@H](Cc1ccccc1)NC(=O)[C@@H]1Cc2ccccc2CN1C(=O)CCCCCCC(=O)NO [Compound 47, (S)-2-{[(S)-2-(7-Hydroxycarbamoyl-heptanoyl)-1,2,3,4-tetrahydro-isoquinoline-3-carbonyl]-amino}-3-phenyl-propionic acid ethyl ester] | 101 to 1000 | > 3300 | 330 to 3300 | 330 to 3300
14 | O=C(CCCCCCC(=O)N1Cc2ccccc2C[C@H]1C(=O)N[C@@H](Cc1ccccc1)C(=O)O)NO [Compound 48, (S)-2-{[(S)-2-(7-Hydroxycarbamoyl-heptanoyl)-1,2,3,4-tetrahydro-isoquinoline-3-carbonyl]-amino}-3-phenyl-propionic acid] | > 1000 | > 3300 | 330 to 3300 | 330 to 3300
15 | CCOC(=O)[C@H](CC(C)C)NC(=O)[C@@H]1Cc2ccccc2CN1C(=O)CCCCCCC(=O)NO [Compound 50, (S)-2-{[(S)-2-(7-Hydroxycarbamoyl-heptanoyl)-1,2,3,4-tetrahydro-isoquinoline-3-carbonyl]-amino}-4-methyl-pentanoic acid ethyl ester] | > 1000 | > 3300 | 330 to 3300 | 330 to 3300
16 | O=C(CCCCCCC(=O)N1Cc2[nH]c3ccccc3c2[C@H](C(=O)N[C@@H](Cc2ccccc2)C(=O)OC2CCCC2)C1)NO [Compound 58, (S)-2-{[(S)-2-(7-Hydroxycarbamoyl-heptanoyl)-2,3,4,9-tetrahydro-1H-beta-carboline-4-carbonyl]-amino}-3-phenyl-propionic acid cyclopentyl ester] | 101 to 1000 | 330 to 3300 | 330 to 3300 | 330 to 3300
17 | CCOC(=O)[C@H](Cc1ccccc1)NCc1cncc(NC(=O)CCCCCCC(=O)NO)c1 [Compound 66, (S)-2-{[5-(7-Hydroxycarbamoyl-heptanoylamino)-pyridin-3-ylmethyl]-amino}-3-phenyl-propionic acid ethyl ester] | 101 to 1000 | > 3300 | > 3300 | > 3300
18 | O=C(CCCCCCC(=O)Nc1cccc(CCN[C@H](C(=O)OC2CCCC2)c2ccccc2)c1)NO [Compound 71, (S)-{2-[3-(7-Hydroxycarbamoyl-heptanoylamino)-phenyl]-ethylamino}-phenyl-acetic acid cyclopentyl ester] | < 100 | 330 to 3300 | < 330 | 330 to 3300
19 | O=C(CCCCCCC(=O)Nc1cccc(OCCN[C@@H](Cc2ccccc2)C(=O)OC2CCCC2)c1)NO [Compound 73, (S)-2-{2-[3-(7-Hydroxycarbamoyl-heptanoylamino)-phenoxy]-ethylamino}-3-phenyl-propionic acid cyclopentyl ester] | < 100 | 330 to 3300 | < 330 | 330 to 3300
20 | O=C(CCCCCCC(=O)Nc1cccc(OCCCN[C@H](C(=O)OC2CCCC2)c2ccccc2)c1)NO [Compound 77, (S)-{3-[3-(7-Hydroxycarbamoyl-heptanoylamino)-phenoxy]-propylamino}-phenyl-acetic acid cyclopentyl ester] | < 100 | 330 to 3300 | < 330 | < 330
21 | O=C(CCCCCCC(=O)Nc1ccc(CN[C@@H](C(=O)OC2CCCC2)c2ccccc2)cc1)NO [Compound 83, (R)-[4-(7-Hydroxycarbamoyl-heptanoylamino)-benzylamino]-phenyl-acetic acid cyclopentyl ester] | 101 to 1000 | 330 to 3300 | 330 to 3300 | 330 to 3300
22 | CC(OC(C)(C)C)[C@H](NCc1ccc(NC(=O)CCCCCCC(=O)NO)cc1)C(=O)OC1CCCC1 (stereo partly drawn) [Compound 88, (S)-3-tert-Butoxy-2-[4-(7-hydroxycarbamoyl-heptanoylamino)-benzylamino]-butyric acid cyclopentyl ester] | 101 to 1000 | 330 to 3300 | < 330 | 330 to 3300
23 | CC(C)(C)OC[C@H](NCc1ccc(NC(=O)CCCCCCC(=O)NO)cc1)C(=O)OC1CCCC1 [Compound 89, (S)-3-tert-Butoxy-2-[4-(7-hydroxycarbamoyl-heptanoylamino)-benzylamino]-propionic acid cyclopentyl ester] | 101 to 1000 | > 3300 | < 330 | 330 to 3300
